The target of this test is Human His6-CBX7 (Homo sapiens (Human), UniProt O95931). Kind of test: CBX7 AlphaScreen assay (binding of CBX7 chromodomain to H3K27me3 peptide). As to conditions: for IC50: average, His6-CBX7 / biotinylated-H3K27me3, read-out: AVG CBX7 Alpha IC50; for improvement in binding affinity compared to the original scaffold: versus Scaffold 2 (FIG. 7). An excerpt:
A biochemical assay was developed based on nanoparticle AlphaScreen assay to monitor the binding of recombinant CBX chromodomain (CBX7) to a methylated peptide (H3K27me3).
The primary assay uses recombinant CBX chromodomain and synthetic, trimethylated H3 histone tail peptide. When CBX/histone tail-binding occurs, AlphaScreen beads are brought in close proximity, resulting in singlet molecular oxygen transfer and production of a luminescent signal. Assay positives inhibiting the binding interaction are therefore expected to prevent complex formation, diminishing signal intensity. The AlphaScreen technology features an anti-Stokes shift in detection: due to energy transfer between beads by singlet oxygen and internal chemical reactions within the acceptor bead, the emission wavelength is blue-shifted relative to the excitation wavelength, which is impossible in traditional fluorescent assays. The relatively long path length of 200 nm that singlet molecular oxygen can travel enables reporting on full protein complexes and not just single target binding. […] Neither the small molecules being tested nor the target protein, CBX7, need to be chemically, conformationally, or behaviorally altered by tethering them to a surface or reporter that may decrease physiological relevance and beget screening artifacts. The primary assay monitors binding of the chromodomain of CBX7 to a histone tail containing a trimethylated lysine at K27, the biologically relevant interaction through which PRC binds to chromatin to repress transcription. This is a robust proximity-based assay that utilizes AlphaScreen technology (PerkinElmer). The assay consists of His6-CBX7 bound to a Ni^++ acceptor bead and the biotinylated histone tail bound to a streptavadin donor bead. Upon CBX7/H3K27me3 binding, the steptavidin bead comes into proximity with the Ni^++ bead to luminesce upon light excitation ([…]; see below).
The protocol for the CBX7 AlphaScreen was as follows: a standard alpha buffer (50 mM HEPES, 150 mM NaCl, 0.1% w/v BSA, 0.01% w/v Tween20) at pH 8.0 and make up two stock solutions at 2× final concentration in the alpha buffer. Solution A contains Human His6-CBX7 is used with biotinylated-H3K27me3 (residues 20-34), at 100 nM and 50 nM respectively. Solution B contains 20 nM streptavidin donor beads and 20 nM nickel acceptor beads. For 384 well assay formats, 10 uL of solution A is added to each well of the assay plate and the plate is spun at 1000 rpm for 30 seconds. 100 nL of experimental compounds from stock plates are delivered by robotic pin transfer using a Janus Workstation (PerkinElmer), allowing the compounds to interact with CBX7 binding prior to assay measurement, followed by another spin and an incubation room temperature. Finally, 10 uL of solution B is added to each well, the plate is spun again and then incubated at room temperature. AlphaScreen measurements are performed on an Envision 2104 (PerkinElmer) utilizing the manufacturer's protocol that has the correct excitation and emission wavelengths, cutoff filters, delay time, etc. A crosstalk calculation is also done through the Envision software to correct for luminescence for adjacent wells while reading the plate. The signal is then normalized to DMSO control wells on the compound plate prior to creation of the IC50 curves.
(In general: Alpha assays give light when donor and acceptor beads are brought close together.)

The record followed here is patent US12129248B2, “Chromobox protein inhibitors and uses thereof” (Dana-Farber Cancer Institute, Inc., priority 2016, dated 2024).

“And” between values parts separate entries of the source, which are not always exact repeats. Equal entries are not always repeated.

What is called IC50 is the midpoint of a concentration-inhibition curve.

Sequence of Human His6-CBX7 (O95931 11-69): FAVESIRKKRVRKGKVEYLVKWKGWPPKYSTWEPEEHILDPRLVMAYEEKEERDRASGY

As to `CN1CCN(CCNC(=O)Cc2cnc(NC(=O)Nc3cccnc3)s2)CC1` [ACV-81], the half-maximal inhibitory concentration (IC50) is 104 µM. On the same count and under the same terms, as for `O=C(O)c1cc(-c2ccco2)nc2ccc(Br)cc12` [ACV-11], the figure is 8.51 µM; as for `O=C(NCCN1CCCC1)c1ccc(-c2csc(N/N=C/c3ccc(O)c(O)c3O)n2)cc1` [ACV-73], 1.65 µM. As for `O=C(CC12SC(CCN3CCOCC3)(NC1=O)C1C(=O)N(c3ccc(N4CCCC4)cc3)C(=O)C12)Nc1ccc(N2CCCC2)cc1` (stereo not drawn) [ACV-84], the IC50 was determined as 7.26 µM. For the compound `O=C(Cc1cnc(NC(=O)Cc2cccnc2)s1)Nc1ccc(N2CCCC2)cc1` [ACV-48 (2)], the IC50 was found to be 607 µM. On to `O=C(CC1SCC(C(=O)N/N=C/c2ccc(O)c(O)c2O)NC1=O)Nc1ccc(N2CCCC2)cc1` (stereo not drawn) [ACV-34], for which the half-inhibitory concentration (IC50) amounted to 7.9 µM. Same read-out and setting: to `O=C(CC1S/C(=N/N=C/c2ccc(O)c(O)c2O)NC1=O)Nc1ccc(N2CCCC2)cc1` (stereo not drawn) [ACV-17* (P2)] belongs 3.37 µM; to `CC(C)(C)c1ccc(/C=N/N=C2\NC(=O)C(CC(=O)Nc3ccc(N4CCCC4)cc3)S2)cc1` (stereo not drawn) [ACV-29], 39 µM and 15.5 µM. In the case of `O=C(CC1S/C(=N/N=C/c2ccc(Cl)nc2)NC1=O)Nc1ccc(N2CCCC2)cc1` (stereo not drawn) [ACV-39], the concentration for half-maximal inhibition (IC50) came to 26.3 µM.

Consider `COc1cc(/C=N/NC(=O)C2CSC(CC(=O)Nc3ccc(N4CCCC4)cc3)C(=O)N2)ccc1O` (stereo not drawn) [ACV-25], for which the concentration for half-maximal inhibition (IC50) turned out to be 60.9 µM. On the same count and under the same terms, to `O=C(CC1S/C(=N/N=C/c2ccc(O)c(O)c2O)NC1=O)Nc1ccc(N2CCCC2)cc1` (stereo not drawn) [ACV-17(3)] belongs 1.01 µM; to `COc1cccc(C(=O)N2CCN(C(=O)COc3cccc(C)c3)CC2)c1OC` [ACV-72], 124 µM; to `O=C(NCc1cccc(N2CCCC2)n1)c1cc(-c2ccco2)nc2ccccc12` [ACV-09], 7.39 µM.

On to `O=C(O)c1ccc(-c2csc(N/N=C/c3ccc(O)c(O)c3O)n2)cc1` [ACV-64], for which the IC50 turned out to be 5.22 µM. Turning to `O=C(Nc1ccc(N2CCCC2)cc1)c1ccc2nc(-c3ccc(O)c(O)c3O)c(NCc3ccccc3)n2c1` [ACV-3-142, 3-(benzylamino)-N-(4-(pyrrolidin-1-yl)phenyl)-2-(2,3,4-trihydroxyphenyl)imidazo[1,2-a]pyridine-6-carboxamide], the half-maximal inhibitory concentration (IC50) amounted to 0.66 µM. On the same count and under the same terms, as for `O=C(CC1S/C(=N/N=C/c2ccc(O)c(O)c2O)NC1=O)Nc1ccc(N2CCCC2)cc1` (stereo not drawn) [ACV-17(4)], the figure is 1.56 µM. Still for that read-out and setting: to `CN1CCN(CCNC(=O)c2ccc(-c3csc(N/N=C/c4ccc(O)c(O)c4O)n3)cc2)CC1` [ACV-75] belongs 0.0686 µM; to `O=C(Nc1csc(N/N=C/c2ccc(O)c(O)c2O)n1)c1ccc(CCN2CCCC2)cc1` [ACV-61], 3.94 µM.

As for `O=C(CCC(=O)N1CCCC(NC(=O)c2cccnc2)C1)c1ccc(CN2CCCC2)cc1` (stereo not drawn) [ACV-71], the IC50 is 4920 µM.

For `O=C(Cc1cnc(NC(=O)Nc2ccc(F)cc2)s1)Nc1ccc(N2CCCC2)cc1` [ACV-49], the IC50 turned out to be 17.2 µM. The same measure, in the same setting: to `O=C(CC1SC(N/N=C/c2ccc(O)c(O)c2O)=NC1=O)Nc1ccc(N2CCCCCC2)cc1` (stereo not drawn) [ACV-86] belongs 11.8 µM; to `O=C(CCC(=O)c1ccc(CN2CCCC2)cc1)NC1CCCN(C(=O)c2cccnc2)C1` (stereo not drawn) [ACV-70], 46.7 µM; to `O=C(COCc1cccnc1)N1CCN(C(=O)c2ccc(CCN3CCCC3)cc2)CC1` [ACV-56], 64.1 µM. Turning to `O=C(Cc1cnc(NC(=O)C(F)(F)c2ccccc2)s1)Nc1ccc(N2CCCC2)cc1` [ACV-74], the IC50 was determined as 167 µM. With `COc1ccc(NC(=O)CC2S/C(=N/N=C/c3cccnc3)NC2=O)cc1OC` (stereo not drawn) [ACV-38], the IC50 was found to be 165 µM. As for `O=C(CC1S/C(=N/Cc2cccnc2)NC1=O)Nc1ccc(N2CCCC2)cc1` (stereo not drawn) [ACV-31], the IC50 turned out to be 404 µM.

`COc1cccc(/C=N/N=C2\NC(=O)C(CC(=O)Nc3ccc(N4CCCC4)cc3)S2)c1OC` (stereo not drawn) [ACV-37]: the IC50 was determined as 114 µM. `CN(C)c1ccc(CCNC(=O)c2cc(-c3ccco3)nc3ccccc23)cc1` [ACV-08]: the concentration for half-maximal inhibition (IC50) came out at 10.3 µM. Take `NC(=S)N/N=C/c1ccc(O)c(O)c1O` [ACV-60]: the half-maximal inhibitory concentration (IC50) was found to be 0.364 µM. Turning to `O=C(Cc1cnc(NC(=O)Cc2cccnc2)s1)Nc1ccc(Br)cc1` [ACV-41], the half-maximal inhibitory concentration (IC50) is 1450 µM.

Consider `C(=N\Nc1nc(-c2ccc(OCc3ccccc3)cc2)cs1)/c1cccnc1` [ACV-59], for which the IC50 stood at 759 µM. In the case of `O=C(CC1SCC(C(=O)N/N=C/c2cccnc2)NC1=O)Nc1ccc(N2CCCC2)cc1` (stereo not drawn) [ACV-24], the IC50 turned out to be 65.3 µM. The same measure, in the same setting: as for `O=C(Cc1cnc(NC(=O)Nc2cccc(Cc3ccccc3)c2)s1)Nc1ccc(N2CCCC2)cc1` [ACV-54], the figure is 9.31 µM. `O=C(Cc1cnc(NC(=O)Nc2cc(F)c(F)cc2F)s1)Nc1ccc(N2CCCC2)cc1` [ACV-47]: the 50% inhibitory concentration (IC50) worked out at 14400 µM. `O=C(Nc1ccc(N2CCCC2)cc1)c1ccc(-c2csc(NCCc3cccnc3)n2)cc1` [ACV-99]: the 50% inhibitory concentration (IC50) was determined as 16.4 µM. Still for that read-out and setting: as for `COc1ccc(-c2ccc3nc(-c4ccco4)cc(C(=O)NCCc4ccc(N(C)C)cc4)c3c2)cc1OC` [ACV-43], the figure is 9100 µM; as for `O=C(CC1S/C(=N/N=C/c2ccc(O)c(O)c2)NC1=O)Nc1ccc(N2CCCC2)cc1` (stereo not drawn) [ACV-36 (2)], 24.5 µM; as for `COc1ccc(CC(=O)Nc2nc3cc(C(=O)NCCN4CCN(C)CC4)ccc3s2)cc1OC` [ACV-95], 879 µM. On the same count and under the same terms, as for `Cc1ccc(/C=N/N=C2\NC(=O)C(CC(=O)Nc3ccc(N4CCCC4)cc3)S2)cc1F` (stereo not drawn) [ACV-27], the figure is 33.9 µM; as for `COc1ccc(NC(=O)Nc2ncc(CC(=O)Nc3ccc(N4CCCC4)cc3)s2)cc1OC` [ACV-53], 12.5 µM.

Consider `CN1CCN(c2ccc(NC(=O)c3cc(-c4ccco4)nc4ccccc34)cc2)CC1` [ACV-10], for which the IC50 was 20.2 µM. In the case of `O=C(COCc1ccc(CN2CCCC2)cc1)N[C@H]1CCCN(Cc2cccnc2)C1=O` [ACV-80], the half-maximal inhibitory concentration (IC50) is 2.86e-05 µM. For the compound `O=C(CC1S/C(=N/N=C/c2cncnc2)NC1=O)Nc1ccc(N2CCCC2)cc1` (stereo not drawn) [ACV-28], the IC50 came to 44.6 µM.

Turning to `O=C(N/N=C/c1ccc(N2CCCC2)cc1)c1ccc(-c2csc(NCCc3cccnc3)n2)cc1` [ACV-92], the IC50 was 170 µM. On the same count and under the same terms, as for `O=C(CC1SC(N2CCC(c3ccc(O)c(O)c3O)=N2)=NC1=O)Nc1ccc(N2CCCC2)cc1` (stereo not drawn) [CBX-08, 2-(4-oxo-2-(3-(2,3,4-trihydroxyphenyl)-4,5-dihydro-1H-pyrazol-1-yl)-4,5-dihydrothiazol-5-yl)-N-(4-(pyrrolidin-1-yl)phenyl)acetamide], the figure is 0.835 µM; as for `O=C(CC1SC(N/N=C/c2ccc(O)c(O)c2O)=NC1=O)Nc1ccc(N2CCCCC2)cc1` (stereo not drawn) [ACV-78], 0.225 µM.

Turning to `COC(=O)Cc1csc(N/N=C/c2ccc(O)c(O)c2O)n1` [ACV-87], the 50% inhibitory concentration (IC50) amounted to 7.26 µM.

For the compound `O=C(COCc1ccc(CN2CCCC2)cc1)N1CCN(C(=O)c2cccnc2)CC1` [ACV-57], the IC50 was found to be 336 µM.

In the case of `O=C(N/N=C/c1c(O)cc(O)cc1O)c1cc(-c2ccco2)nc2ccccc12` [ACV-03], the half-maximal inhibitory concentration (IC50) was 0.445 µM and the “improvement in binding affinity compared to the original scaffold” value was “more than 5 fold”. In the case of `O=C(CC1S/C(=N/N=C/c2ccccn2)NC1=O)Nc1ccc(N2CCCC2)cc1` (stereo not drawn) [ACV-15], the IC50 was 37.3 µM. On the same count and under the same terms, as for `O=C(CC1S/C(=N/N=C/c2cccc(-c3ccc(C(=O)O)cc3)c2)NC1=O)Nc1ccc(N2CCCC2)cc1` (stereo not drawn) [ACV-32], the figure is 23.5 µM; as for `O=C(O)c1cc(-c2ccco2)nc2ccccc12` [ACV-07 (2)], 194 µM; as for `O=C(NCCN1CCCC1)c1ccc(-c2csc(N/N=C/c3cccnc3)n2)cc1` [ACV-79], 3.01 µM. Still for that read-out and setting: as for `O=C(Nc1ccc(CCN2CCCC2)cc1)c1cc(-c2ccco2)nc2ccccc12` [ACV-13], the figure is 69.5 µM. The same measure, in the same setting: to `CN1CCN(CCNc2nc(CC(=O)Nc3ccc(N4CCCC4)cc3)cs2)CC1` [ACV-85] belongs 54.8 µM; to `O=C(Cc1ccc(O)c(O)c1)NCc1nc(CC(=O)Nc2ccc(N3CCCC3)cc2)cs1` [ACV-96], 79.3 µM. With `COc1ccc(NC(=O)Cc2csc(NCCN3CCN(C)CC3)n2)c(OC)c1` [ACV-88], the IC50 was 246 µM. Take `O=C(N/N=C/c1ccc(N2CCCC2)cc1)c1cc(-c2ccco2)nc2ccccc12` [ACV-05]: the IC50 came out at 1.88 µM and the “improvement in binding affinity compared to the original scaffold” value was “more than 5 fold”.
